Paper PMC5513091, “A novel Alzheimer’s disease drug candidate targeting inflammation and fatty acid metabolism” (Alzheimer's Research & Therapy, 2017)
Where two headings read alike, the source gives them in different places.

Key:
MC65 = test: Aβ toxicity (intracellular); assay type: cell-based, human; conditions: read-out: Half-maximal effective concentration, Aβ toxicity (intracellular)
Procedure: (§1) The various phenotypic screening assays were conducted as previously described. Briefly, HT-22, primary cortical neurons, or MC65 was plated and exposed to the different environmental stresses. Cells were treated with varying concentrations of CAD-31, and half-maximal effective concentration (EC50) was determined on the basis of cell viability.
• An assay that mimics the dramatic loss of neurotrophic support in the old brain is the trophic factor withdrawal assay. Primary embryonic day 18 cortical cells are plated at low density in serum-free medium. At low density, the cells die within 2 days; they can be rescued by combinations of neurotrophic growth factors, but not by one alone ([19] and unpublished data). […] BDNF is a molecule that is also involved in promoting memory and neurogenesis and is reduced in the brain with age and in AD, as well as in other neurological disorders. BDNF has long been considered a drug target for AD [23]. […] A reduction in GSH is a common denominator of old age and essentially all chronic central nervous system (CNS) diseases. J147 and CAD-31 both effectively reduce oxidative stress, with EC50 of 6 nM and 20 nM, respectively. • CAD-31 also prevents loss of energy metabolism that leads to neuron cell death in an in vitro ischemia model. […] Intracellular Aβ toxicity was assayed in the human neuron cell line MC65 that conditionally expresses the C99 fragment of the amyloid precursor protein. When the cells are induced to make Aβ, the cells die within 4 days. Both J147 and CAD-31 block this toxicity at around 10 nM. Therefore, CAD-31 has a repertoire of neuroprotective activities similar but not identical to that of its parent compound, J147.

ubiquitinated proteins = test: Immunoblotting of hippocampal tissue; assay type: in vivo, mice; conditions: hippocampus
Procedure: (§2) Hippocampal tissue samples were homogenized in 10 volumes of radioimmunoprecipitation assay (RIPA) lysis buffer (50 mM Tris, pH 7.5, 150 mM NaCl, 0.1% SDS, 0.5% deoxycholate, and 1% Nonidet P-40) containing a cocktail of protease and phosphatase inhibitors [[…] each of pepstatin A, aprotinin, phosphoramidon, and leupeptin; 0.5 mM 4-(2-aminoethyl)benzenesulfonyl fluoride hydrochloride; 1 mM ethylene glycol-bis(β-aminoethyl ether)-N,N,N′,N′-tetraacetic acid; 5 mM fenvalerate; and 5 mM cantharidin]. Samples were sonicated (2 × 10 seconds) and centrifuged first at 10,000 × g for 10 minutes and then at 100,000 × g for 60 minutes at 4 °C. The 100,000 × g pellet was taken up either in 6 M guanidine for Aβ analysis or in SDS sample buffer for Western blot analysis. Protein concentrations in the cell extracts were determined using a bicinchoninic acid protein assay (Pierce Biotechnology, Rockford, IL, USA). Equal amounts of protein were solubilized in 2.5× SDS sample buffer, separated on 12% SDS-polyacrylamide gels, transferred to Immobilon-P (EMD Millipore, Billerica, MA, USA), and immunoblotted with the antibodies indicated in the Materials subsection above. For Western blot experiments, protein levels were normalized to actin levels. An unpaired t test was performed to compare two groups at a single time point. When comparing multiple groups, one-way analysis of variance (ANOVA) followed by Tukey’s post hoc test was used. All statistical analysis was conducted using GraphPad InStat software.

DCX = test: Immunoblotting of hippocampal tissue; assay type: in vivo, mice; conditions: hippocampus
Procedure: as §2

ACC-1 = test: Immunoblotting of hippocampal tissue; assay type: in vivo, mice; conditions: hippocampus
Procedure: as §2

[1] = system: autophagy markers LC3 and P62; test: Immunoblotting of hippocampal tissue; assay type: in vivo, mice; conditions: data not shown
Procedure: as §2

[2] = Body weights and food consumption during feeding study; assay type: in vivo, mice; conditions: 200 ppm in diet for 3 months, measured weekly; data not shown
Procedure: The APPswe/PS1∆E9-transgenic mice were characterized previously. Line 85 mice carry two transgenes, the mouse/human chimeric APPswe, linked to Swedish familial AD and human PS1∆E9. At 10 months of age, female transgenic mice were fed a defined diet (Harlan Teklad; Envigo, Indianapolis, IN, USA) with and without CAD-31 (200 ppm, approximately 10 mg/kg/day). Treatment continued for 3 months, followed by behavior testing and tissue harvesting.

Pharmacokinetics in rats = assay type: in vivo, Sprague-Dawley rats
Procedure: (§3) Sprague-Dawley rats had free access to food and water. CAD-31 was given by gavage to rats at 20 mg/kg in corn oil and intravenously in 15% HS 15/PBS. Whole-blood samples were collected from the jugular vein at every time point and brain collected after 20-ml saline perfusion. CAD-31 was extracted with acetonitrile and compared with standards on a TSQ Quantiva™ Triple Quadrupole Mass Spectrometer (Thermo Scientific, Waltham, MA, USA). For the mouse feeding studies, mice had free access to food containing 200 ppm CAD-31. Blood was collected by heart puncture, and the brain concentration was determined as with rats.

APPswe/PS1∆E9 mice = test: Open-field assay; assay type: in vivo; conditions: old mice, 200 ppm in chow for 3 months; data not shown
[3] = system: Primary embryonic day 18 cortical cells; test: Trophic factor withdrawal assay; assay type: cell-based; conditions: Cortical neurone; Cortical neuron; cell viability; read-out: Half-maximal effective concentration, Trophic factor withdrawal
Procedure: as §1
• An assay that mimics the dramatic loss of neurotrophic support in the old brain is the trophic factor withdrawal assay. Primary embryonic day 18 cortical cells are plated at low density in serum-free medium. At low density, the cells die within 2 days; they can be rescued by combinations of neurotrophic growth factors, but not by one alone ([19] and unpublished data). […] BDNF is a molecule that is also involved in promoting memory and neurogenesis and is reduced in the brain with age and in AD, as well as in other neurological disorders. BDNF has long been considered a drug target for AD [23]. […] A reduction in GSH is a common denominator of old age and essentially all chronic central nervous system (CNS) diseases. J147 and CAD-31 both effectively reduce oxidative stress, with EC50 of 6 nM and 20 nM, respectively. • CAD-31 also prevents loss of energy metabolism that leads to neuron cell death in an in vitro ischemia model. […]

[4] = Free feeding CAD-31 plasma and brain levels in mice; assay type: in vivo
Procedure: as §3

APPswe/PS1ΔE9 mice = system: APPswe/PS1ΔE9 mice; design: method as in PMID 27149904; conditions: old APPswe/PS1ΔE9 mice fed from an early age, preventive strategy; cited from earlier work
[5] = mice fed ad libitum, 200 ppm in chow (about 10 mg/kg/day)

With `Cc1ccc(N(/N=C/c2cccc(OC(F)(F)F)c2)C(=O)C(F)(F)F)c(C)c1` [CAD-31] the EC50 (MC65; Homo sapiens, MC65, MC65) was about 10 nM, the EC50 (MC65; MC65) was 12 nM and the RIPA-insoluble ubiquitinated proteins (ubiquitinated proteins; 13-month-old WT and AD mice) was “reduced”. The “ubiquitinated proteins in the soluble fraction” value (ubiquitinated proteins; data not shown) was “unchanged”, the “expression of the NPC marker DCX” value (DCX) was “increased the expression of the NPC marker DCX in the hippocampus” and the “phosphorylation of ACC-1” value (ACC-1; AD mice) was “greatly increases the depressed level of phosphorylation in AD mice”. For the same molecule, the “total amount of ACC-1 protein” value (ACC-1; AD mice) was “not significantly reduced”, the “phosphorylation of ACC-1” value (ACC-1; WT mice) was “decreases the phosphorylation of ACC-1 in WT mice” and the “expression of the autophagy markers LC3 and P62” value [1] was “did not, however, alter the expression”. For the same molecule, the “body weights and food consumption” value [2] was “no significant differences between the groups”, the “PO Max Brain, concentration” value (Pharmacokinetics in rats; 20 mg/kg by gavage in corn oil) was 3.0 µM and the “PO Max Brain, time” value (Pharmacokinetics in rats; 20 mg/kg by gavage in corn oil) was 8 h. For the same molecule, the “PO Max Plasma, concentration” value (Pharmacokinetics in rats; 20 mg/kg by gavage in corn oil) was 1.7 µM, the “PO Max Plasma, time” value (Pharmacokinetics in rats; 20 mg/kg by gavage in corn oil) was 8 h and the Kp at 8 h (Pharmacokinetics in rats; Sprague-Dawley, rat, brain and plasma, po, 20 mg/kg by gavage, at 8 h, read-out: brain-to-plasma ratio) was 2.8. The half-life (Pharmacokinetics in rats; Sprague-Dawley, rat, in vivo, 20 mg/kg) was 4.3 h, the bioavailability (Pharmacokinetics in rats; Sprague-Dawley, rat, plasma, oral, 20 mg/kg) was 31% and the EC50 at 10 µM (Ames test) was over 10000 nM. For the same molecule, the “activity in the Ames test” value (Ames test; 10 μM) was “showed no sign of acute toxicity or activity”, the “open-field assay, overt toxicity” value (APPswe/PS1∆E9 mice) was “no differences between groups” and the EC50 [3] was 18 nM. The “maximum brain concentration, free-fed” value [4, 5] was 53 nM, the “maximum plasma concentration, free-fed” value [4, 5] was 82 nM and the “Free-Fed ~10 mg/kg/day Brain” value ([4]; mice, 200 ppm in food) was 0.053 µM. The “Free-Fed ~10 mg/kg/day Plasma” value ([4]; mice, 200 ppm in food) was 0.082 µM and the “division of NPCs in the subventricular zone” value (APPswe/PS1ΔE9 mice) was “stimulates the division of NPCs in the subventricular zone”.
